{
  "source": "ChEMBL document CHEMBL2311426",
  "about": "“Synthesis and antibacterial activity of novel water-soluble nocathiacin analogs” (Bioorg Med Chem Lett, 2013)",
  "assay_type_in_all_cases": "functional",
  "key": {"Enterococcus faecalis": {"tested_on": "Enterococcus faecalis", "test": "Antibacterial activity against Enterococcus faecalis C21560 by turbidity method", "details": "read-out: MIC100"}, "Staphylococcus aureus [1]": {"tested_on": "Staphylococcus aureus", "test": "Antibacterial activity against Staphylococcus aureus MB2865 by turbidity method", "details": "read-out: MIC100"}, "Staphylococcus aureus [2]": {"tested_on": "Staphylococcus aureus", "test": "Antibacterial activity against Staphylococcus aureus MB2865 infected in iv dosed mouse assessed as >= log10 cfu kidney burden reduction administered bid after 24 hrs"}, "Streptococcus pneumoniae": {"tested_on": "Streptococcus pneumoniae", "test": "Antibacterial activity against Streptococcus pneumoniae CL2883 by turbidity method", "details": "read-out: MIC100"}, "Staphylococcus aureus [3]": {"tested_on": "Staphylococcus aureus", "test": "Antibacterial activity against Staphylococcus aureus MB2865 infected in mouse assessed as log kidney burden reduction administered at 4 mg/kg, iv bid after 24 hrs relative to control"}, "Staphylococcus aureus [4]": {"tested_on": "Staphylococcus aureus", "test": "Ratio of vancomycin ED99 to compound ED99 for Staphylococcus aureus MB2865 infected in iv dosed mouse"}},
  "data": [
    {"compound": "CO/C(C)=C1/NC(=O)[C@H]([C@@H](C)O)NC(=O)c2csc(n2)-c2cc(O)c(-c3nc(CNC(=O)CN4CCN(C)CC4)cs3)nc2-c2csc(n2)[C@@H]2COC(=O)c3c4c5c(cccc5n3O)COC(=O)[C@@H](O[C@H]3C[C@](C)(O)[C@H](N(C)C)[C@H](C)O3)[C@@H](OC4)[C@H](NC(=O)c3csc1n3)c1nc(cs1)C(=O)N2", "values": [
      {"measurement": "MIC", "setting": "Enterococcus faecalis", "result": 0.09, "unit": "µg/mL"},
      {"measurement": "MIC", "setting": "Staphylococcus aureus [1]", "result": 0.0375, "unit": "µg/mL"},
      {"measurement": "ED99", "setting": "Staphylococcus aureus [2]", "result": 0.28, "unit": "mg/kg"},
      {"measurement": "MIC", "setting": "Streptococcus pneumoniae", "result": 0.0007, "unit": "µg/mL"},
      {"measurement": "CFU", "setting": "Staphylococcus aureus [3]", "result": 1.08}
    ]},
    {"compound": "CO/C(C)=C1/NC(=O)[C@H]([C@@H](C)O)NC(=O)c2csc(n2)-c2cc(O)c(-c3nc(CNC(=O)C(C)NC(N)=O)cs3)nc2-c2csc(n2)[C@@H]2COC(=O)c3c4c5c(cccc5n3O)COC(=O)[C@@H](O[C@H]3C[C@](C)(O)[C@H](N(C)C)[C@H](C)O3)[C@@H](OC4)[C@H](NC(=O)c3csc1n3)c1nc(cs1)C(=O)N2", "note": "(stereo not given in full)", "values": [
      {"measurement": "MIC", "setting": "Enterococcus faecalis", "result": 0.25, "unit": "µg/mL"},
      {"measurement": "MIC", "setting": "Staphylococcus aureus [1]", "result": 0.06, "unit": "µg/mL"},
      {"measurement": "ED99", "setting": "Staphylococcus aureus [2]", "result": 0.02, "unit": "mg/kg"},
      {"measurement": "MIC", "setting": "Streptococcus pneumoniae", "result": 0.0038, "unit": "µg/mL"},
      {"measurement": "Ratio", "setting": "Staphylococcus aureus [4]", "result": 200}
    ]}
  ]
}
